Measurements from paper PMC10528299, “Targeting FAK/PYK2 with SJP1602 for Anti-Tumor Activity in Triple-Negative Breast Cancer” (Current Issues in Molecular Biology, 2023).

Legend:
Assay in all cases: Eurofins kinase profiling
Assay type in all cases: biochemical
[1] = target: T1, MAPK2(h) (Homo sapiens, UniProt P28482); settings: read-out: residual kinase activity MAPK2(h)
T1 construct: purchased Eurofins KinaseProfiler
How it was run: (§1)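 Radiometric detection, with radiolabeled phosphate as substrate, gave the kinase activity after each enzyme was incubated with 1 µM test compound. The run belonged to a 110-assay profiling panel.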

[2] = target: T2, MST3(h) (Homo sapiens, UniProt Q9Y6E0); settings: read-out: residual kinase activity MST3(h)
T2 construct: purchased Eurofins KinaseProfiler
T2 sequence (Q9Y6E0 whole entry): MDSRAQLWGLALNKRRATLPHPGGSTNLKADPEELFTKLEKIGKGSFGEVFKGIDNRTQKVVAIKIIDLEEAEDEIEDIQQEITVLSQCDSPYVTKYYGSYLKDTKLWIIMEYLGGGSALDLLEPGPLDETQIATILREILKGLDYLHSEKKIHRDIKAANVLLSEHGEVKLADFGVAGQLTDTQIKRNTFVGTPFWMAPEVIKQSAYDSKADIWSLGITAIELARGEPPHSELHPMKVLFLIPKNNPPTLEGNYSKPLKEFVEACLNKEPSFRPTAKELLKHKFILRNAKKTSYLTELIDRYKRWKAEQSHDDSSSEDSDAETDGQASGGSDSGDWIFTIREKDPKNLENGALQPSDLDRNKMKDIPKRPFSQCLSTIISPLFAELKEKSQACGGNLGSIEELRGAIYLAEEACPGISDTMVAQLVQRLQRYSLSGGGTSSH
How it was run: as §1

[3] = target: T3, CDK1/cyclinB(h) (Homo sapiens, UniProt P06493); settings: read-out: residual kinase activity CDK1/cyclinB(h)
T3 construct: purchased Eurofins KinaseProfiler
T3 sequence (P06493 whole entry): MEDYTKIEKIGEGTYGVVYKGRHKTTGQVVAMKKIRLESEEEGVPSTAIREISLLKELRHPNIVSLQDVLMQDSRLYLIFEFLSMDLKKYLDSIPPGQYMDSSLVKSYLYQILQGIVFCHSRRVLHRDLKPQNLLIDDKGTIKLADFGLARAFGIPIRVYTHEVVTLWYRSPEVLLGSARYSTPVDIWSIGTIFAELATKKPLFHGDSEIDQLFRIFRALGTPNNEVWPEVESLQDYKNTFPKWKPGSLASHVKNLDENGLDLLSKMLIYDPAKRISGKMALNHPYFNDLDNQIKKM
T3 sequence (P14635 whole entry partner): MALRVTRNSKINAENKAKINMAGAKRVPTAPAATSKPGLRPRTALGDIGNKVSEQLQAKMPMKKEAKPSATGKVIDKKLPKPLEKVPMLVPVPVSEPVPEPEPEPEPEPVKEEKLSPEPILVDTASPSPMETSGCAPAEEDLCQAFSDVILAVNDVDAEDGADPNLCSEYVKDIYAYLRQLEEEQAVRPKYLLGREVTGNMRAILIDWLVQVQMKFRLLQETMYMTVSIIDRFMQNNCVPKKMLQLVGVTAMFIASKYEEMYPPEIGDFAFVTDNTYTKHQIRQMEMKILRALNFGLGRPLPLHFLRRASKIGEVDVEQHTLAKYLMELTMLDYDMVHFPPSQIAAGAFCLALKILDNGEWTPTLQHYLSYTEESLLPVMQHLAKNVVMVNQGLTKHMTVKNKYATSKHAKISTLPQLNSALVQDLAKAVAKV
How it was run: as §1

[4] = target: T4, c-RAF(h) (Homo sapiens, UniProt P04049); settings: read-out: residual kinase activity c-RAF(h)
T4 construct: purchased Eurofins KinaseProfiler
How it was run: as §1

[5] = target: T5, MELK(h) (Homo sapiens, UniProt Q14680); settings: read-out: residual kinase activity MELK(h)
T5 construct: purchased Eurofins KinaseProfiler
T5 sequence (Q14680 whole entry): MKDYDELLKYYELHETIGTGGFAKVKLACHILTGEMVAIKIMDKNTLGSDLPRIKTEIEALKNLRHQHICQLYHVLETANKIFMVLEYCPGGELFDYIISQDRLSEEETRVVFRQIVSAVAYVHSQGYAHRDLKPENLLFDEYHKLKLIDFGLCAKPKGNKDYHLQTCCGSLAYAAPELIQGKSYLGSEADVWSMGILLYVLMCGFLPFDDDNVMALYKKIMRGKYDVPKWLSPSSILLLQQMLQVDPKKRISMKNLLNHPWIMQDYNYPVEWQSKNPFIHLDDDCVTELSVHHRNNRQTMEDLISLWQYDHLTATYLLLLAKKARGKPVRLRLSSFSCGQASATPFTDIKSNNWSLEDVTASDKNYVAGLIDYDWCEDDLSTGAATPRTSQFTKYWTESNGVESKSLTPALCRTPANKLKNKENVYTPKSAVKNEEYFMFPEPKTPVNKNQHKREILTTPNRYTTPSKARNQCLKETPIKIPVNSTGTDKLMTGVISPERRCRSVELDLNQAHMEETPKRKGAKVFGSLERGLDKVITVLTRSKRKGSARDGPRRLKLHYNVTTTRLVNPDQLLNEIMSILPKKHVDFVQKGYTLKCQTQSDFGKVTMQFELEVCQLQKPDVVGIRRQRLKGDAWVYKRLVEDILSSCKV
How it was run: as §1

[6] = target: T6, ROCK-I(h) (Homo sapiens, UniProt Q13464); settings: read-out: residual kinase activity ROCK-I(h)
T6 construct: purchased Eurofins KinaseProfiler
T6 sequence (Q13464 whole entry): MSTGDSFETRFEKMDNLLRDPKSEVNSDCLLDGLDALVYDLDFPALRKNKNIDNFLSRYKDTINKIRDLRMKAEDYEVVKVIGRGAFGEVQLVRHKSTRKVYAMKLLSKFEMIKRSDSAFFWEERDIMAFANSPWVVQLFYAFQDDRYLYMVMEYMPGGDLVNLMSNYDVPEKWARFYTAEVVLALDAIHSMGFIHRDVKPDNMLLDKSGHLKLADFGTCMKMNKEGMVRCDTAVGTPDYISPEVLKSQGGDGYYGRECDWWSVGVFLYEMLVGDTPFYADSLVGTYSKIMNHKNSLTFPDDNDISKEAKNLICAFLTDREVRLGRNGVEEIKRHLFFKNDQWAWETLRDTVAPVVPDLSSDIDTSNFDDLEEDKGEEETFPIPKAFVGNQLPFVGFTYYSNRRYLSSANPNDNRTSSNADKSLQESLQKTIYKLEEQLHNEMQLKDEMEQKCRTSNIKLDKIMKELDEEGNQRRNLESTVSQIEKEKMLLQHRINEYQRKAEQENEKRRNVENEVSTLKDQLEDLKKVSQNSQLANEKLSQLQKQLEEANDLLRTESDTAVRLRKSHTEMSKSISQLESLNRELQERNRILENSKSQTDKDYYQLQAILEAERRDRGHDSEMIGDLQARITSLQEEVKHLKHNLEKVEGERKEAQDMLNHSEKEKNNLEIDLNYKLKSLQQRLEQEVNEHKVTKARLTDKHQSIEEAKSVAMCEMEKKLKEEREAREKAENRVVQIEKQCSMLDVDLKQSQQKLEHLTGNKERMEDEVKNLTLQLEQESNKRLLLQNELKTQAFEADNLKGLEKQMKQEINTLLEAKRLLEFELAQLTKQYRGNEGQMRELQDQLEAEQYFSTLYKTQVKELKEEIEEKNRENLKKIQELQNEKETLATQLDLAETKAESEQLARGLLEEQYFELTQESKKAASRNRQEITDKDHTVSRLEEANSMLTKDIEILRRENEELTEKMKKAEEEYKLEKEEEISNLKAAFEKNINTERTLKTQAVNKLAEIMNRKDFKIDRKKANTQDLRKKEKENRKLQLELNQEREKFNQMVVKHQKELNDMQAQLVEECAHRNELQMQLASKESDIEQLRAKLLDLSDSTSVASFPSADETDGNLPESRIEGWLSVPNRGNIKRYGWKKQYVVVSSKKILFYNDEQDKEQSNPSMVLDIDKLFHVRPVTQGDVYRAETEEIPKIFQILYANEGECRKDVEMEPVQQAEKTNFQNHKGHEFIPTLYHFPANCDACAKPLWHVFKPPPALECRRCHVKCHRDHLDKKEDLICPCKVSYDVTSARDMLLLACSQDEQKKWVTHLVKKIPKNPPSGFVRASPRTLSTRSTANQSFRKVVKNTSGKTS
How it was run: as §1

[7] = target: T7, LKB1(h) (Homo sapiens, UniProt Q15831); settings: read-out: residual kinase activity LKB1(h)
T7 construct: purchased Eurofins KinaseProfiler
T7 sequence (Q15831 1-433): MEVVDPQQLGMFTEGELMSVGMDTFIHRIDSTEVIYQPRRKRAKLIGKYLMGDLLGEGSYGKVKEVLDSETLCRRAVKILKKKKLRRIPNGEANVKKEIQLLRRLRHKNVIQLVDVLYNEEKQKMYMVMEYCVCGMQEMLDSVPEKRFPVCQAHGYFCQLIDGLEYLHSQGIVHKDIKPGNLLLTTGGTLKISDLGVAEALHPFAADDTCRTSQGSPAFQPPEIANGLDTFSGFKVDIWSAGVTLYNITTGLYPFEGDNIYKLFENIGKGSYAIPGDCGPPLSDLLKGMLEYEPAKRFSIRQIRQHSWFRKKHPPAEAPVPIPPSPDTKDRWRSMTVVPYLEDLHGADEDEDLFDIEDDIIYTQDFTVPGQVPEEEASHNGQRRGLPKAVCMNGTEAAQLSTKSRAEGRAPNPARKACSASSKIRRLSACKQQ
T7 sequence (Q7RTN6 1-431 partner): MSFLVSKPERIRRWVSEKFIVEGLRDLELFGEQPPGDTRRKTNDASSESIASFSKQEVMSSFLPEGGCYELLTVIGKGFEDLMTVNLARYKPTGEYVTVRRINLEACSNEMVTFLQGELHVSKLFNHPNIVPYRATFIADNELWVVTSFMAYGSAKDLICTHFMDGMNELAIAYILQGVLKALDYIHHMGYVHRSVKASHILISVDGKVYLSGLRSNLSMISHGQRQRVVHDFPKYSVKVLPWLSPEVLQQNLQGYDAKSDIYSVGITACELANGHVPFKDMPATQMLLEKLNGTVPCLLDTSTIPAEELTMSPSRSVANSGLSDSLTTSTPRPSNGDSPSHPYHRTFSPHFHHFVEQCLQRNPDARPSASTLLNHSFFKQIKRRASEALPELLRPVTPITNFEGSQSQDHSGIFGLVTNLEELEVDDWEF
T7 sequence (Q9Y376 1-341 partner): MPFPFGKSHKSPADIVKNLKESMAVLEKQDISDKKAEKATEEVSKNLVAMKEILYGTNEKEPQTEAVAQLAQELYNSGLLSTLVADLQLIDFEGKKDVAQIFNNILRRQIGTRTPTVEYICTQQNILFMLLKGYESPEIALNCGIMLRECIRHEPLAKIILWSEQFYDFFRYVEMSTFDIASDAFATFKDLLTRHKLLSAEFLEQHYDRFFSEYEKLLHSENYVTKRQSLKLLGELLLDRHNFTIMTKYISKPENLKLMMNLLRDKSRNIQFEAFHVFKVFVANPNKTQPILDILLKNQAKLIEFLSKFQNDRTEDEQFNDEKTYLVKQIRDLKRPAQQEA
How it was run: as §1

[8] = target: T8, Abl(h) (Homo sapiens, UniProt P00519); settings: read-out: residual kinase activity Abl(h)
T8 construct: purchased Eurofins KinaseProfiler
How it was run: as §1

[9] = target: T9, PKC μ(h) (Homo sapiens, UniProt Q15139); settings: read-out: residual kinase activity PKC μ(h)
T9 construct: purchased Eurofins KinaseProfiler
T9 sequence (Q15139 1-912): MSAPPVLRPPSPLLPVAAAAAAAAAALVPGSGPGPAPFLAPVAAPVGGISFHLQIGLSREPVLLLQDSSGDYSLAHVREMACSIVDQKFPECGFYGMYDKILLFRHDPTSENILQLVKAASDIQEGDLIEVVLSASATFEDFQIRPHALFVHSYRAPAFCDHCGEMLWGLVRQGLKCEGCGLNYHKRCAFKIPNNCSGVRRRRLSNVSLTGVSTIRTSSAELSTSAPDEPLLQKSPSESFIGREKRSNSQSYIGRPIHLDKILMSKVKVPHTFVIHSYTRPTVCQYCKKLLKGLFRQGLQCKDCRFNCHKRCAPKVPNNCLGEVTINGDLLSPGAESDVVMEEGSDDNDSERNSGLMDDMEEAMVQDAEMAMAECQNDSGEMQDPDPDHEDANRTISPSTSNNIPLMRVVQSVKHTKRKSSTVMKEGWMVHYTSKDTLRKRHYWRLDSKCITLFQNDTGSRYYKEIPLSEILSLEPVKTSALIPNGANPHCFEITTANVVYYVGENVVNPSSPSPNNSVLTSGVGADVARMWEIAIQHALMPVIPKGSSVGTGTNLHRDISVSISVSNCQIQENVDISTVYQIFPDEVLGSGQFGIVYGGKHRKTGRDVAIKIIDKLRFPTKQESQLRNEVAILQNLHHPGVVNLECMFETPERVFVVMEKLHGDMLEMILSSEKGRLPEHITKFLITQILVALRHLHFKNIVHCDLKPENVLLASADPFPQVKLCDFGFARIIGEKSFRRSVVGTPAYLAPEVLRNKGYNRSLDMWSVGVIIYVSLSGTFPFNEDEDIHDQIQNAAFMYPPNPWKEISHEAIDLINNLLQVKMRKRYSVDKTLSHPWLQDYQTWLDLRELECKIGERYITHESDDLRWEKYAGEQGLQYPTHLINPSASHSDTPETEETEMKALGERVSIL
How it was run: as §1

[10] = target: T10, KDR(h) (Homo sapiens, UniProt P35968); settings: read-out: residual kinase activity KDR(h)
T10 construct: purchased Eurofins KinaseProfiler
T10 sequence (P35968 20-1356): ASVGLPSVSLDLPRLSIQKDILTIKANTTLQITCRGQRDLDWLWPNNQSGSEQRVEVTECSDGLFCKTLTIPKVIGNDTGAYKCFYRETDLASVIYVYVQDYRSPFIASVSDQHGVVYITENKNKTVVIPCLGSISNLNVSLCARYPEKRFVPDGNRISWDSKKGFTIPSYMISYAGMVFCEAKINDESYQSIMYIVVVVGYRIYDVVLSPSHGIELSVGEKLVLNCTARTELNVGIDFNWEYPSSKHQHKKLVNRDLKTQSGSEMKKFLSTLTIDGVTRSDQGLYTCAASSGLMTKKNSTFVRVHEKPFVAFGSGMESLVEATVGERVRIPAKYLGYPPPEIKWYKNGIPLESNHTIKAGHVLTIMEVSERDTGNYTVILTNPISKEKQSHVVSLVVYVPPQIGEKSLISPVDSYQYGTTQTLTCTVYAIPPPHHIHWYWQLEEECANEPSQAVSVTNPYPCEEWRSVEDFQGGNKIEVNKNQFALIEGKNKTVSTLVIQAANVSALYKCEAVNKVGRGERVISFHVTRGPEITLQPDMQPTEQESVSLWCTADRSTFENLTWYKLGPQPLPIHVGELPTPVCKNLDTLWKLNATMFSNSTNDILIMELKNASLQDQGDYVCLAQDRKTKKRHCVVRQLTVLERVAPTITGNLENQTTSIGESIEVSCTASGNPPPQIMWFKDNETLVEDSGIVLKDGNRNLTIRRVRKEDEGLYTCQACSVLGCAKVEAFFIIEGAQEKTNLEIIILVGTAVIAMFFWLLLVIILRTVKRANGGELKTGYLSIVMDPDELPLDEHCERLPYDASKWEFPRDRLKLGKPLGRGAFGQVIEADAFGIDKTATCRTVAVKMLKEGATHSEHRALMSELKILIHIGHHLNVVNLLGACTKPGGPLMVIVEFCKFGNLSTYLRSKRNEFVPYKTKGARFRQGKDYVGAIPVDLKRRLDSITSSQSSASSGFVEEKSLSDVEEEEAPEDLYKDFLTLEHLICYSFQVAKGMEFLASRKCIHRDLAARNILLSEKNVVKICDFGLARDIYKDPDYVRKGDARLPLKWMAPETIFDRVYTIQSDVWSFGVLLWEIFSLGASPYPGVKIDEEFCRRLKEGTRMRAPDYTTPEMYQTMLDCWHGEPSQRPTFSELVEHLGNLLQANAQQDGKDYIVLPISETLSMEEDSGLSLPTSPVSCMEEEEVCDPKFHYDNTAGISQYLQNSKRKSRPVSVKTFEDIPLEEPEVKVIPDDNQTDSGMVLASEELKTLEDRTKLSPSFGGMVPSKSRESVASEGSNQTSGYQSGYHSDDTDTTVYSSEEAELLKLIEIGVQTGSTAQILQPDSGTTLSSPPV
How it was run: as §1

T1 sequence (P28482 whole entry): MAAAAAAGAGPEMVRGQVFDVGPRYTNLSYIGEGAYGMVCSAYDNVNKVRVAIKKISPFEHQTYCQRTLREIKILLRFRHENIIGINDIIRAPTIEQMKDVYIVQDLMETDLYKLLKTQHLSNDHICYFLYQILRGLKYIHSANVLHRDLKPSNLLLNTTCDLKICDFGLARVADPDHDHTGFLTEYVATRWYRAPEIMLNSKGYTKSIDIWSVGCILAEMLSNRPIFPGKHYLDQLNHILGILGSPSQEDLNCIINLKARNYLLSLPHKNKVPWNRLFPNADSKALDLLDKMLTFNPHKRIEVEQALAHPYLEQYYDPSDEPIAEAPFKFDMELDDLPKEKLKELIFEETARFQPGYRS

Structure (SMILES)	remaining activity at 1 µM [1] [%]	remaining activity at 1 µM [2] [%]	remaining activity at 1 µM [3] [%]	remaining activity at 1 µM [4] [%]	remaining activity at 1 µM [5] [%]	remaining activity at 1 µM [6] [%]	remaining activity at 1 µM [7] [%]	remaining activity at 1 µM [8] [%]	remaining activity at 1 µM [9] [%]	remaining activity at 1 µM [10] [%]
CONC(=O)c1ccccc1Nc1cc(Nc2cc(C)nn2C(C)C)ncc1Cl [GSK2256098]	94	102	97	72	91	107	98	99	109	88
CNC(=O)c1ccc(Nc2ncc(C(F)(F)F)c(NCc3nccnc3N(C)S(C)(=O)=O)n2)cc1 [VS-6063, Defactinib]	87	33	14	80	9	103	89	57	100	28
CNC(=O)c1cccc(C)c1Nc1nc(Nc2ccc(N3CCN(C4C5CC6CC4CC(O)(C6)C5)CC3)cc2OC)ncc1C(F)(F)F (stereo not drawn) [SJP1602, 2-((2-((4-(4-((2s,5r)-5-hydroxyadamantan-2-yl)piperazin-1-yl)-2-methoxyphenyl)amino)-5-(trifluoromethyl)pyrimidin-4-yl)amino)-N,3-dimethylbenzamide]	95	95	88	90	74	101	96	76	113	101
